Tests used:
IRAK-M [1] = biological target: T1, IRAK-M (Homo sapiens, UniProt Q9Y616); assay: In vitro degradation activity of target protein (IRAK-M ELISA in THP1 cells); assay type: cell-based; design: host or cells: THP1 cells; details: 24 hours, second symbol of cell, read-out: IRAK-M 50% degradation concentration (DC50 value)
T1 sequence (Q9Y616 1-596): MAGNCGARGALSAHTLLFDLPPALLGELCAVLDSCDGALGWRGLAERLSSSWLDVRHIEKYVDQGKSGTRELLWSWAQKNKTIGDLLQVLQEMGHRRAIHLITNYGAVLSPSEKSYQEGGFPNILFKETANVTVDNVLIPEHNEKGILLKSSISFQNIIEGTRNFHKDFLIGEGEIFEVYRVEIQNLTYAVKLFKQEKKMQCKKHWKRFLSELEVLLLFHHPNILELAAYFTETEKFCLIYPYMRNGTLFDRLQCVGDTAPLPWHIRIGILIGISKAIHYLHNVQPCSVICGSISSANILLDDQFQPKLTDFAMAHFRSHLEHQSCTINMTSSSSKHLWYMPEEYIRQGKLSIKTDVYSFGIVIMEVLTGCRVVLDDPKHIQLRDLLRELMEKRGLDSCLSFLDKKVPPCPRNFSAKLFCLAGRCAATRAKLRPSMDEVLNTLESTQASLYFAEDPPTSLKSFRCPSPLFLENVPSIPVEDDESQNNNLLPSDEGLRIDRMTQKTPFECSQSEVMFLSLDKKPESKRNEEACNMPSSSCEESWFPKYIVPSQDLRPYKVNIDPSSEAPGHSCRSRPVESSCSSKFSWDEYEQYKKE
Experimental: In vitro degradation activities of target protein of the example compounds were evaluated using Enzyme-linked immuno-sorbent assay (ELISA) by the following assay steps. THP1 cells (ATCC, TIB-202) were cultured in RPMI-1640 supplemented with 10% FBS, lx sodium pyruvate, lx HEPES, D-(+)-glucose and 1% penicillin/streptomycin. THP1 cells were seeded at a density of 1×10^6 cells/well in 24-well plate and treated with DMSO control or test compound, and then incubated for 24 hours. The cells were collected and lysed on ice for 30 minutes in lysis buffer (PBS containing 0.1% Triton X-100) containing a protease inhibitor cocktail (Roche, Cat #11836170001). The lysates were sonicated for 30 sec ON/30 sec OFF for ten cycles and centrifuged for 10 minutes at 13k rpm at 4° C. Protein concentrations were determined by the BCA assay (Sigma, Cat #QPBCA-1KT). The ELISA assay was performed using the Human IRAK3/IRAKM/IRAK-M ELISA Kit (LifeSpan BioSciences, Cat #LS-F35271), and the protein levels of IRAK-M were evaluated according to the kit protocol. As to the IRAK-M degradation rate of test compounds, protein degradation rate (%) when the concentration of the test compound is […] described as A≥75%, 50%≤B<75%, 25%≤C<50%, D<25%, or 50% degradation concentration (DC50 value) described as A<0.03 μM, 0.03 μM≤B<0.1 μM, 0.1 μM≤C<0.3 μM, 0.3 μM≤D<1 μM, is shown in the table below.

IRAK-M [2] = biological target: T1, IRAK-M; assay: IRAK-M binding inhibitory activity (KINOMEscan active site-dependent competitive assay); design: purchased Eurofins Discover X; details: for IC50: second symbol of cell, read-out: IRAK-M binding inhibition IC50 value; for remaining binding at 1 µM: concentration of the test compound 1 μM, first symbol of cell, read-out: IRAK-M binding inhibition activity % Ctrl
Summary of the method: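 Active site-dependent competition binding assay (KINOMEscan) against human IRAK-M. Result expressed as % Ctrl = (compound signal − positive control signal)/(DMSO signal − positive control signal) × 100, where DMSO = 100% Ctrl and control compound = 0% Ctrl.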

[3] = biological target: T2, human XIAP_BIR3 domain purified protein (Homo sapiens, UniProt P98170); assay: XIAP binding inhibitory activity (HTRF, b-Smac ligand); details: for IC50: second symbol of cell, read-out: XIAP binding inhibition IC50 value; for inhibition at 3 µM: concentration of the test compound 3 μM, first symbol of cell, read-out: XIAP binding inhibition rate
T2 construct: purchased R & D
T2 sequence (P98170 252-356 limits assumed): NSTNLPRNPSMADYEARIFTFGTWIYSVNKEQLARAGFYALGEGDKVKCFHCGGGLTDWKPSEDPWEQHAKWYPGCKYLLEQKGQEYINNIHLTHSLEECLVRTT
Summary of the method: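 HTRF competition between compound and C-terminally biotinylated Smac peptide AVPIAQK for His-tagged XIAP BIR3, both diluted to 90 nM before addition, in pH 7.5 HEPES/NaCl/BSA/Triton buffer. Eu-cryptate anti-His and streptavidin-XL665 added, ≥4 h at room temperature in the dark; inhibition % from 665/615 nm ratio versus no-compound wells.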

DC50 (IRAK-M [1])	IC50 (IRAK-M [2])	IC50 [3]	remaining binding at 1 µM (IRAK-M [2])	Structure (SMILES)	inhibition at 3 µM [3]
< 30 nM	300 to 1000 nM	3000 to 30000 nM	–	CN[C@@H](C)C(=O)N[C@H](C(=O)N1CCN(C(=O)c2cc3cc(F)c(F)cc3n2CC(=O)N2CCC[C@H]2COc2cc(CN3CCC(Oc4ccnc5ccsc45)CC3)on2)[C@@H](C)C1)C1CCCCC1 [Example 27, (S)-N-((S)-1-Cyclohexyl-2-((S)-4-(5,6-difluoro-1-(2-oxo-2-((S)-2-(((5-((4-(thieno[3,2-b]pyridin-7-yloxy)piperidin-1-yl)methyl)isoxazol-3-yl)oxy)methyl)pyrrolidin-1-yl)ethyl)-1H-indole-2-carbonyl)-3-methylpiperazin-1-yl)-2-oxoethyl)-2-(methylamino)propanamide]	–
30 to 100 nM	–	3000 to 30000 nM	–	CN[C@@H](C)C(=O)N[C@H](C(=O)N1CCN(C(=O)c2cc3cc(F)c(F)cc3n2CC(=O)N2CCC[C@H]2COc2cc(CN3CCC(Oc4ccnc5ccsc45)CC3)on2)[C@@H](C)C1)C1CCC(F)(F)CC1 [Example 49, (S)-N-((S)-2-((S)-4-(5,6-difluoro-1-(2-oxo-2-((S)-2-(((5-((4-(thieno[3,2-b]pyridin-7-yloxy)piperidin-1-yl)methyl)isoxazol-3-yl)oxy)methyl)pyrrolidin-1-yl)ethyl)-1H-indole-2-carbonyl)-3-methylpiperazin-1-yl)-1-(4,4-difluorocyclohexyl)-2-oxoethyl)-2-(methylamino)propanamide]	–
300 to 1000 nM	–	3000 to 30000 nM	≥ 75%	CN[C@@H](C)C(=O)N[C@H](C(=O)N1CCN(C(=O)c2c(F)c3ccccc3n2CC(=O)N(C)CCOCCOCCOCCOc2cc(CN3CCC(Oc4ccnc5ccsc45)CC3)on2)CC1)C1CCCCC1 [Example 37, (S)-N-((S)-1-cyclohexyl-2-(4-(3-fluoro-1-(3-methyl-2-oxo-14-((5-((4-(thieno[3,2-b]pyridin-7-yloxy)piperidin-1-yl)methyl)isoxazol-3-yl)oxy)-6,9,12-trioxa-3-azatetradecyl)-1H-indole-2-carbonyl)piperazin-1-yl)-2-oxoethyl)-2-(methylamino)propanamide]	–
100 to 300 nM	–	3000 to 30000 nM	–	CN[C@@H](C)C(=O)N[C@H](C(=O)N1CCN(C(=O)c2cc3cc(F)c(F)cc3n2CC(=O)N2CCC[C@H]2COc2cc(CN3CCC(Oc4ccnc5ccsc45)CC3)on2)CC1)C1CCC(F)(F)CC1 [Example 48, (S)-N-((S)-2-(4-(5,6-difluoro-1-(2-oxo-2-((S)-2-(((5-((4-(thieno[3,2-b]pyridin-7-yloxy)piperidin-1-yl)methyl)isoxazol-3-yl)oxy)methyl)pyrrolidin-1-yl)ethyl)-1H-indole-2-carbonyl)piperazin-1-yl)-1-(4,4-difluorocyclohexyl)-2-oxoethyl)-2-(methylamino)propanamide]	–
–	–	300 to 3000 nM	50 to 75%	CN[C@@H](C)C(=O)N[C@H](C(=O)N1CCN(C(=O)c2ccc3c(c2)cc(C)n3CCOCCOCCOc2cc(CN3CCC(Oc4ccnc5ccsc45)CC3)on2)C[C@H]1C)C1CCCCC1 [Example 56, (S)-N-((S)-1-cyclohexyl-2-((R)-2-methyl-4-(2-methyl-1-(2-(2-(2-((5-((4-(thieno[3,2-b]pyridin-7-yloxy)piperidin-1-yl)methyl)isoxazol-3-yl)oxy)ethoxy)ethoxy)ethyl)-1H-indole-5-carbonyl)piperazin-1-yl)-2-oxoethyl)-2-(methylamino)propanamide]	–
–	–	3000 to 30000 nM	< 25%	CN[C@@H](C)C(=O)N[C@H](C(=O)N1CCN(C(=O)c2c(C(=O)N(C)CCOCCOCCOc3cc(CN4CCC(Oc5ccnc6ccsc56)CC4)on3)c3cc(F)c(F)cc3n2C)C[C@H]1C)C1CCCCC1 [Example 11, 2-((R)-4-((S)-2-cyclohexyl-2-((S)-2-(methylamino)propanamido)acetyl)-3-methylpiperazine-1-carbonyl)-5,6-difluoro-N,1-dimethyl-N-(2-(2-(2-((5-((4-(thieno[3,2-b]pyridin-7-yloxy)piperidin-1-yl)methyl)isoxazol-3-yl)oxy)ethoxy)ethoxy)ethyl)-1H-indole-3-carboxamide]	–
–	–	300 to 3000 nM	25 to 50%	C[C@@H]1CN(CC(=O)N2CCN(C(=O)c3cc4cc(F)c(F)cc4n3C)C[C@H]2C)[C@@H](COCCOCCOc2cc(CN3CCC(Oc4ccnc5ccsc45)CC3)on2)CN1 [Example 20, 1-((R)-4-(5,6-difluoro-1-methyl-1H-indole-2-carbonyl)-2-methylpiperazin-1-yl)-2-((2R,5R)-5-methyl-2-((2-(2-((5-((4-(thieno[3,2-b]pyridin-7-yloxy)piperidin-1-yl)methyl)isoxazol-3-yl)oxy)ethoxy)ethoxy)methyl)piperazin-1-yl)ethan-1-one]	–
–	–	–	25 to 50%	CN[C@@H](C)C(=O)N[C@H](C(=O)N1CCN(C(=O)c2c(OCCOCCOc3cc(CN4CCC(Oc5ccnc6ccsc56)CC4)on3)c3cc(F)c(F)cc3n2C)CC1)C1CCCCC1 [Example 22, (S)-N-((S)-1-cyclohexyl-2-(4-(5,6-difluoro-1-methyl-3-(2-(2-((5-((4-(thieno[3,2-b]pyridin-7-yloxy)piperidin-1-yl)methyl)isoxazol-3-yl)oxy)ethoxy)ethoxy)-1H-indole-2-carbonyl)piperazin-1-yl)-2-oxoethyl)-2-(methylamino)propanamide]	25 to 50%
–	100 to 300 nM	300 to 3000 nM	–	CN[C@@H](C)C(=O)N[C@H](C(=O)N1CCN(C(=O)c2c(C(=O)N(C)CCOCCOCCOc3cc(CN4CCC(Oc5ccnc6ccsc56)CC4)on3)c3cc(F)ccc3n2C)CC1)C1CCCCC1 [Example 3, 2-(4-((S)-2-cyclohexyl-2-((S)-2-(methylamino)propanamido)acetyl)piperazine-1-carbonyl)-5-fluoro-N,1-dimethyl-N-(2-(2-(2-((5-((4-(thieno[3,2-b]pyridin-7-yloxy)piperidin-1-yl)methyl)isoxazol-3-yl)oxy)ethoxy)ethoxy)ethyl)-1H-indole-3-carboxamide]	–
–	–	300 to 3000 nM	< 25%	CN[C@@H](C)C(=O)N[C@H](C(=O)N1CCN(C(=O)c2ccc3c(c2)cc(C)n3CCOCCOCCOCCOc2cc(CN3CCC(Oc4ccnc5ccsc45)CC3)on2)CC1)C1CCCCC1 [Example 53, (S)-N-((S)-1-cyclohexyl-2-(4-(2-methyl-1-(2-(2-(2-(2-((5-((4-(thieno[3,2-b]pyridin-7-yloxy)piperidin-1-yl)methyl)isoxazol-3-yl)oxy)ethoxy)ethoxy)ethoxy)ethyl)-1H-indole-5-carbonyl)piperazin-1-yl)-2-oxoethyl)-2-(methylamino)propanamide]	–

Structure (SMILES)	DC50 (IRAK-M [1])	IC50 (IRAK-M [2])	IC50 [3]	remaining binding at 1 µM (IRAK-M [2])	inhibition at 3 µM [3]
CN[C@@H](C)C(=O)N[C@H](C(=O)N1CCN(C(=O)c2cc3cc(F)c(F)cc3n2CC(=O)N2CCC[C@@H]2COc2cc(CN3CCC(Oc4ccnc5ccsc45)CC3)on2)CC1)C1CCCCC1 [Example 31, (S)-N-((S)-1-cyclohexyl-2-(4-(5,6-difluoro-1-(2-oxo-2-((R)-2-(((5-((4-(thieno[3,2-b]pyridin-7-yloxy)piperidin-1-yl)methyl)isoxazol-3-yl)oxy)methyl)pyrrolidin-1-yl)ethyl)-1H-indole-2-carbonyl)piperazin-1-yl)-2-oxoethyl)-2-(methylamino)propanamide]	–	–	–	25 to 50%	25 to 50%
